The test system of data set [1] is MCF7. In words: Cytotoxicity against human MCF7 cells after 7 days by MTT assay. In kind it is functional. The conditions noted are these: MCF7, 168 h, read-out: ED50 (the source's name). In general terms: Tetrazolium assays rely on reduction of a dye to a coloured formazan, in cell work by metabolically active cells.
Data set [2] in a line: Toxicity against brine shrimp larvae. The format is organism-based. The settings on record: artemia, in vivo.
The subject of data set [3] is MIA PaCa-2. In words: Cytotoxicity against human MIAPaCa2 cells after 7 days by MTT assay. In kind it is functional. The conditions noted are these: MIA PaCa-2, 168 h, read-out: ED50 (the source's name).
Data set [4] relates to A549. As to the kind of experiment: Cytotoxicity against human A549 cells after 7 days by MTT assay. In kind it is functional. The conditions noted are these: A549, 168 h, read-out: ED50 (the source's name).
The test system of data set [5] is HT-29. In words: Cytotoxicity against human HT-29 cells after 7 days by MTT assay. The format is functional. The conditions noted are these: HT-29, 168 h, read-out: ED50 (the source's name).
The test system of data set [6] is PC-3. In words: Cytotoxicity against human PC3 cells after 7 days by MTT assay. In kind it is functional. The conditions noted are these: PC-3, 168 h, read-out: ED50 (the source's name).
Data set [7] deals with Aedes aegypti. As to the kind of experiment: Cytotoxicity against yellow fever mosquitoes. The format is functional.
Data set [8] has as its system A498. As to the kind of experiment: Cytotoxicity against human A498 cells after 7 days by MTT assay. The format is functional. The settings on record: A498, 168 h, read-out: ED50 (the source's name).

In brackets after ≈: the same amount, converted by molar mass.

For the compound `CC(=O)O[C@H]1C[C@@H](OC(C)=O)[C@@]2(C)CO[C@@H]3[C@@H](O)[C@@]4(C)C5=CC[C@@H](c6ccoc6)[C@]5(C)CC[C@@H]4[C@]1(C)[C@@H]32`, the EC50 in data set [1] amounted to 2.42 µg/mL (≈ 4.72 µM); in data set [3], 3.06 µg/mL (≈ 5.97 µM); in data set [4], 3.29 µg/mL (≈ 6.42 µM); in data set [5] it was 3.73 µg/mL (≈ 7.28 µM); in data set [6], 2.78 µg/mL (≈ 5.42 µM); in data set [8] it was 3.35 µg/mL (≈ 6.53 µM). Further, the LC50 (in general, the concentration lethal to half of the exposed cells or organisms) is 10 µg/mL (≈ 19.5 µM) in data set [2] and 29.2 µg/mL (≈ 56.9 µM) in data set [7].

With `CC(=O)O[C@H]1C[C@@H](OC(=O)c2ccccc2)C(C)(C)[C@@H]2C[C@@H](OC(C)=O)[C@@]3(C)C4=CC(=O)[C@@H](C5COC(C)(C)C(=O)C(=O)C5)[C@]4(C)CC[C@@H]3[C@@]12C` (some centres not stated) [16,23,24-TRIKETOMELIANIN B], the EC50 worked out at 2.61 µg/mL (≈ 3.7 µM) in data set [1]; 3.32 µg/mL (≈ 4.71 µM) in data set [3]; 18.2 µg/mL (≈ 25.8 µM) in data set [4]; 6.36 µg/mL (≈ 9.02 µM) in data set [5]; 2.1 µg/mL (≈ 2.98 µM) in data set [6]; 4.15 µg/mL (≈ 5.89 µM) in data set [8].

For `CC(=O)O[C@H]1C[C@@H](OC(=O)c2ccccc2)C(C)(C)[C@@H]2C[C@@H](OC(C)=O)[C@@]3(C)C4=CC[C@@H](C5COC(=O)C5)[C@]4(C)CC[C@@H]3[C@@]12C` (some centres not stated) [MELIANIN C], the EC50 came to 14.5 µg/mL (≈ 23.3 µM) in data set [1]; 20.6 µg/mL (≈ 33.2 µM) in data set [3]; 21.9 µg/mL (≈ 35.2 µM) in data set [4]; 18.1 µg/mL (≈ 29.1 µM) in data set [5]; 0.473 µg/mL (≈ 0.762 µM) in data set [6]; 26.5 µg/mL (≈ 42.7 µM) in data set [8].

With `CC(=O)O[C@H]1C[C@@H](OC(=O)c2ccccc2)C(C)(C)[C@@H]2C[C@@H](OC(C)=O)[C@@]3(C)C4=CC[C@@H](C5COC(C)(C)C(=O)C(=O)C5)[C@]4(C)CC[C@@H]3[C@@]12C` (some centres not stated), the EC50 in data set [1] came out at 6.13 µg/mL (≈ 8.87 µM); in data set [3], 0.013 µg/mL (≈ 0.0188 µM); in data set [4], 1.07 µg/mL (≈ 1.55 µM); in data set [5], 6.25 µg/mL (≈ 9.05 µM); in data set [6], 0.0281 µg/mL (≈ 0.0407 µM); in data set [8], 4.78 µg/mL (≈ 6.92 µM).

Take `COc1cccc2c1C(=O)c1c(O)c3c(c(O)c1C2=O)C[C@@](O)(C(=O)CO)C[C@@H]3O[C@H]1C[C@H](N)[C@H](O)[C@H](C)O1` [DOXORUBICIN]: the EC50 was 0.253 µg/mL (≈ 0.465 µM) in data set [1]; 0.0133 µg/mL (≈ 0.0245 µM) in data set [3]; 0.0351 µg/mL (≈ 0.0646 µM) in data set [5]; 0.0276 µg/mL (≈ 0.0508 µM) in data set [6]; 0.00424 µg/mL (≈ 0.0078 µM) in data set [8].

`CC(=O)O[C@H]1C[C@@H](OC(=O)c2ccccc2)C(C)(C)[C@@H]2C[C@@H](OC(C)=O)[C@@]3(C)C4=CC[C@@H](C5COC(C)(C)[C@@H](O)[C@H](O)C5)[C@]4(C)CC[C@@H]3[C@@]12C` (some centres not stated) [MELIANIN B]: the EC50 in data set [1] amounted to 3.29 µg/mL (≈ 4.73 µM); in data set [3], 2.09 µg/mL (≈ 3.01 µM); in data set [4], 1.68 µg/mL (≈ 2.42 µM); in data set [5], 2.15 µg/mL (≈ 3.09 µM); in data set [6], 0.393 µg/mL (≈ 0.566 µM); in data set [8], 3.67 µg/mL (≈ 5.28 µM). Besides, the LC50 in data set [2] and in data set [7] was over 100 µg/mL throughout.

`CC(=O)O[C@@H]1C[C@H](OC(=O)c2ccccc2)[C@@]2(C)[C@H]3[C@H](OC[C@]13C)[C@@H](O)[C@@]1(C)C3=CC[C@@H](c4ccoc4)[C@]3(C)CC[C@@H]12` [MELIAVOLKININ]: the EC50 amounted to 27.8 µg/mL (≈ 48.4 µM) in data set [1]; 16.7 µg/mL (≈ 29.1 µM) in data set [3]; 25.4 µg/mL (≈ 44.1 µM) in data set [4]; 28.1 µg/mL (≈ 48.8 µM) in data set [5]; 1.02 µg/mL (≈ 1.77 µM) in data set [6]; 26.9 µg/mL (≈ 46.8 µM) in data set [8]. The LC50 in data set [2] is 5.37 µg/mL (≈ 9.34 µM); in data set [7] it was 59.7 µg/mL (≈ 104 µM).

(Values after ChEMBL document CHEMBL1158849, “New bioactive triterpenoids from Melia volkensii” (J Nat Prod, 1998).)
